This passage reports IC50 results from patent publication US20200171028A1, “METALLOENZYME INHIBITOR COMPOUNDS” (Viiamet Pharmaceuticals Holdings, LLC, priority 2017, published 2020).

What all share (type): biochemical
For one assay, the target named is T1, HDAC11 (Homo sapiens, UniProt Q96DB2).
T1 sequence (Q96DB2 1-347): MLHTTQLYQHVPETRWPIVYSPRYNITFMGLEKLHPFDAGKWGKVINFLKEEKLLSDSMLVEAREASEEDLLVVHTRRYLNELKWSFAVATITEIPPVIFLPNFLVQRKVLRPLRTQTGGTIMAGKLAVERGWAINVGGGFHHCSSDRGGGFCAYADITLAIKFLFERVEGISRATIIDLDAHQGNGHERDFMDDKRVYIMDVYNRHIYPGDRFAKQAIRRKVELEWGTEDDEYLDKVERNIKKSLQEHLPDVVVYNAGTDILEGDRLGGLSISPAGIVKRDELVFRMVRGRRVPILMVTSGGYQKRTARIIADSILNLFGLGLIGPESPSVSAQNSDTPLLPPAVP
Kind of assay: HDAC11 enzymatic assay. The following applies: Table 3 comparison results. Here is the method: (§1) All enzymatic reactions were conducted in duplicate at room temperature for 17 hours in a 50 μl mixture containing HDAC assay buffer (50 mM Tris-HCl, pH 7.4, 137 mM NaCl, 2.7 mM KCl, 0.05% Tween 20, 5 μg BSA), an HDAC substrate, an HDAC enzyme, and a test compound. Compound dilution was prepared ten-fold higher than the final concentration of the compounds with 10% DMSO in HDAC assay buffer and 5 al of the dilution was added to a 50 al reaction so that the final concentration of DMSO is 1% in all of reactions. After enzymatic reactions, 50 μl of HDAC Developer was added to each well and the plate was incubated at room temperature for an additional 20 minutes. Fluorescence intensity was measured at an excitation of 360 nm and an emission of 460 nm using a Tecan Infinite M1000 or Biotek Synergy microplate reader. The fluorescent intensity data were analyzed using the computer software, Graphpad Prism. In the absence of the compound, the fluorescent intensity (Ft) in each data set was defined as 100% activity. In the absence of HDAC, the fluorescent intensity (Fb) in each data set was defined as 0% activity. The percent activity in the presence of each compound was calculated according to the following equation: % activity=(F−Fb)/(Ft−Fb), where F=the fluorescent intensity in the presence of the compound. […]

Another assay has as its target T2, HDAC8 (Homo sapiens, UniProt Q9BY41).
T2 sequence (Q9BY41 1-377): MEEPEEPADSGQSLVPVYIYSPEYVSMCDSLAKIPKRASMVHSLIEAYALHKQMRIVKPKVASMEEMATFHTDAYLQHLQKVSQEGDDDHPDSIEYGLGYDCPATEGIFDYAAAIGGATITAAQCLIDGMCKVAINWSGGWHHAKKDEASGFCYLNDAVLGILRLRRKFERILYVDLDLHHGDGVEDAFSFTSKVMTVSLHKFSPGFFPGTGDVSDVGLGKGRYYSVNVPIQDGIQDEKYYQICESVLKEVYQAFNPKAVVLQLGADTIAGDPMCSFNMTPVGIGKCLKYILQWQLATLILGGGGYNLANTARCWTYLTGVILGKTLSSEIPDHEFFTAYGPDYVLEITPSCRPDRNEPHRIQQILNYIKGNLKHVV
Briefly: HDAC8 enzymatic assay. Here is the method: as §1

The target in the next assay is T3, HDAC6 (Homo sapiens, UniProt Q9UBN7).
T3 sequence (Q9UBN7 1-1215): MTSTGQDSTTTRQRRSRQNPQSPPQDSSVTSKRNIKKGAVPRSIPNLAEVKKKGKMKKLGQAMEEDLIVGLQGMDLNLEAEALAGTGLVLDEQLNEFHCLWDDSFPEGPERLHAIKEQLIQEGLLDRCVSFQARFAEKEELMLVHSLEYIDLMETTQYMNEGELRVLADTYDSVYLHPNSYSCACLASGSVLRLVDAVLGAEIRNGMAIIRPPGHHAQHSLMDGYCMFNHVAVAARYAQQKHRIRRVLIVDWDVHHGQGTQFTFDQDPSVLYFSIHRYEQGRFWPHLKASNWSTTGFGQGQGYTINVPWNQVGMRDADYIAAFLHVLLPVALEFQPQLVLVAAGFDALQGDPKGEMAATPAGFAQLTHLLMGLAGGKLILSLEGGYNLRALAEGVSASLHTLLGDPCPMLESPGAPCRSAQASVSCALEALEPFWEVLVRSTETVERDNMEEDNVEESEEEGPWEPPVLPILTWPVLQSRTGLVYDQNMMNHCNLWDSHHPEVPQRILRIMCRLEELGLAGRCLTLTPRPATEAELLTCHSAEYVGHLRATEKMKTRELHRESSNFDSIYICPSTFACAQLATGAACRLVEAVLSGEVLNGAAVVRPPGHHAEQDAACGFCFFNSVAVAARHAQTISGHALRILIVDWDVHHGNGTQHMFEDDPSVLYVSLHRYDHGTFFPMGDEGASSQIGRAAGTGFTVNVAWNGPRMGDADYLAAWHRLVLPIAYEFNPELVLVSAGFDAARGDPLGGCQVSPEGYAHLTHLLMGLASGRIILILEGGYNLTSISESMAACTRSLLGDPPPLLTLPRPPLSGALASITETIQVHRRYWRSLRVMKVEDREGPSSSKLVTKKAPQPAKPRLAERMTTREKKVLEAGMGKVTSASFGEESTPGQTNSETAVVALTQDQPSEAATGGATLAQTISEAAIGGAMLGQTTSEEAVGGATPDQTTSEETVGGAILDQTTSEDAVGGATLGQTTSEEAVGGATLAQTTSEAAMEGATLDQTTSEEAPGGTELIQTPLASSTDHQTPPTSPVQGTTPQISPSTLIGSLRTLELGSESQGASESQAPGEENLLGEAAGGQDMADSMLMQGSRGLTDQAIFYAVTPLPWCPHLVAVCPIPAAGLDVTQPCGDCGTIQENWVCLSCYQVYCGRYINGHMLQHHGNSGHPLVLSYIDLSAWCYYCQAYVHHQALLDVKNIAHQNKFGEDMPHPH
Briefly: HDAC6 enzymatic assay. To be noted: Table 3 comparison results. The method, then:
as §1

Another assay concerns the target HDAC2 (Homo sapiens, UniProt Q92769). Briefly: HDAC2 enzymatic assay. Here is the method: as §1
In a further assay the target is HDAC4 (Homo sapiens, UniProt P56524). Briefly: HDAC4 enzymatic assay. To be noted: Table 3 comparison results. Here is the method: as §1
The next assay addresses HDAC3/NCOR2 (Homo sapiens, UniProt O15379). Kind of assay: HDAC3 enzymatic assay. Here is the method: as §1
For another assay, the target named is HDAC9 (Homo sapiens, UniProt Q9UKV0). Kind of assay: HDAC9 enzymatic assay. To be noted: Table 3 comparison results. The method, then: as §1
A further assay concerns the target T4, HDAC10 (Homo sapiens, UniProt Q969S8).
T4 sequence (Q969S8 1-669): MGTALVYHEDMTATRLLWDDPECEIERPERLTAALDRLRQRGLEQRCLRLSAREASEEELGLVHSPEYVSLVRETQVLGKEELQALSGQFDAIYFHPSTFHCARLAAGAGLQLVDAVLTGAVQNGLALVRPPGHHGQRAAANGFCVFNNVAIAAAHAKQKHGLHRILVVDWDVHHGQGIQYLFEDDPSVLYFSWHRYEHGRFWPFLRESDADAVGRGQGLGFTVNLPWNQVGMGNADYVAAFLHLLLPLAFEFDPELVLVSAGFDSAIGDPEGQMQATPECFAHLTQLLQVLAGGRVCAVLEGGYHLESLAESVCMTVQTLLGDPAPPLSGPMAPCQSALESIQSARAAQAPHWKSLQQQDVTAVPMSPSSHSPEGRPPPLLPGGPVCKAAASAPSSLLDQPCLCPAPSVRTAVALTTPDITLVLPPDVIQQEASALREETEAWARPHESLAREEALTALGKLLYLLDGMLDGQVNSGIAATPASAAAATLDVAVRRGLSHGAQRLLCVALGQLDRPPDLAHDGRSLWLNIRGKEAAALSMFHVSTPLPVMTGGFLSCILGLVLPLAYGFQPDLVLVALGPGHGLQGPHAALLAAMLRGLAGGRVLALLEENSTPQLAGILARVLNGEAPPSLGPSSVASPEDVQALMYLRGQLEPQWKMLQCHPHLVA
Kind of assay: HDAC10 enzymatic assay. The following applies: Table 3 comparison results. Here is the method:
as §1

The next assay has as its target T5, HDAC7 (Homo sapiens, UniProt Q8WUI4).
T5 sequence (Q8WUI4 1-952): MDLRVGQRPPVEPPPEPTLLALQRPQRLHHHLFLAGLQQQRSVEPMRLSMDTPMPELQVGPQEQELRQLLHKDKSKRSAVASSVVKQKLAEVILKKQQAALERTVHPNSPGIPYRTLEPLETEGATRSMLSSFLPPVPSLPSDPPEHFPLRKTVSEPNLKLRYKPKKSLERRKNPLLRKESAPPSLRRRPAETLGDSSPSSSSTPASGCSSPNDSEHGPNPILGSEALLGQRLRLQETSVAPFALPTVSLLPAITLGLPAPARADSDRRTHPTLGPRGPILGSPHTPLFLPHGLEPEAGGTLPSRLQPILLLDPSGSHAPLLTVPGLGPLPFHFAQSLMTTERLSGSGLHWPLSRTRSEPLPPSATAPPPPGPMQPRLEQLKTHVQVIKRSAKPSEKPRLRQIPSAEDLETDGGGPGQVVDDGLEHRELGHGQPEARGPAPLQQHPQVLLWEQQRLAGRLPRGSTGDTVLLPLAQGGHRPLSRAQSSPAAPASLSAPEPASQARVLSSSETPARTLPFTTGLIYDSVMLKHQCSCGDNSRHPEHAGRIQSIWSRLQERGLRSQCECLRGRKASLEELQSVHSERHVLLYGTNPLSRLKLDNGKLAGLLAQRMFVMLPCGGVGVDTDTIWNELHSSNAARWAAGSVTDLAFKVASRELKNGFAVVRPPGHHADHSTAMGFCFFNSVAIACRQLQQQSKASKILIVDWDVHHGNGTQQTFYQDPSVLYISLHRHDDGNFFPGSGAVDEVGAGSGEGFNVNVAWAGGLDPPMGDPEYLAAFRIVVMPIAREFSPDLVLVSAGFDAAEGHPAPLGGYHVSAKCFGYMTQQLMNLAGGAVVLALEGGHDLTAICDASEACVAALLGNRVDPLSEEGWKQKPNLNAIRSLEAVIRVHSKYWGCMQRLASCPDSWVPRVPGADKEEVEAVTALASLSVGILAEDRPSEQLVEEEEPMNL
Kind of assay: HDAC7 enzymatic assay. The following applies: Table 3 comparison results. Here is the method:
as §1

The next assay deals with HDAC5 (Homo sapiens, UniProt Q9UQL6). Briefly: HDAC5 enzymatic assay. To be noted: Table 3 comparison results. Here is the method:
as §1

A further assay deals with HDAC1 (Homo sapiens, UniProt Q13547). Kind of assay: HDAC1 enzymatic assay. Here is the method: as §1
Sequence of HDAC1 (Q13547 whole entry): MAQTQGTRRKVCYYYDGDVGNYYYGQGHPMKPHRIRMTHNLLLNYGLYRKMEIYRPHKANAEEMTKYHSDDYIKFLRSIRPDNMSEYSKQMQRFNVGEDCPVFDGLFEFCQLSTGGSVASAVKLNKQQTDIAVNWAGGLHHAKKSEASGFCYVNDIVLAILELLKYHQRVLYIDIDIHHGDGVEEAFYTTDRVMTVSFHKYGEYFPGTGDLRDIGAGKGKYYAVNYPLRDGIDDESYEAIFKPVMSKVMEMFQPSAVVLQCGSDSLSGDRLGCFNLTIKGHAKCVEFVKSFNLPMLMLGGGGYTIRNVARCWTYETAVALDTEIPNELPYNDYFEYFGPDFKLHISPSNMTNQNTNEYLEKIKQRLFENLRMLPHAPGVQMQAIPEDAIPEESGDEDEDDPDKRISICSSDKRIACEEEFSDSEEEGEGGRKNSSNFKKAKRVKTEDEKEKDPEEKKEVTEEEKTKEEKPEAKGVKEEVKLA

Sequence of HDAC2 (Q92769 whole entry): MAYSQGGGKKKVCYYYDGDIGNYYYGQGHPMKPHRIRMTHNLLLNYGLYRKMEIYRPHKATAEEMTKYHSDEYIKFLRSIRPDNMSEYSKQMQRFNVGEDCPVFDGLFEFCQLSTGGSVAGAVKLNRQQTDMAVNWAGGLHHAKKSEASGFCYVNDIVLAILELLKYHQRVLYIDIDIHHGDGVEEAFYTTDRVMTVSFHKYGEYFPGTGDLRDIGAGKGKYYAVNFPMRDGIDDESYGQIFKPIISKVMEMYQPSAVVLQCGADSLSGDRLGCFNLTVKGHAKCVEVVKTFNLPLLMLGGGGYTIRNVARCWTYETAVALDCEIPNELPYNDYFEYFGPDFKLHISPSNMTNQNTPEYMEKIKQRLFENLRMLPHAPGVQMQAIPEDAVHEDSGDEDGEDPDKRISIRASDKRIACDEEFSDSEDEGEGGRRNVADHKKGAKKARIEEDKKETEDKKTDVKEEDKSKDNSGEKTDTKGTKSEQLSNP
Sequence of HDAC9 (Q9UKV0 whole entry): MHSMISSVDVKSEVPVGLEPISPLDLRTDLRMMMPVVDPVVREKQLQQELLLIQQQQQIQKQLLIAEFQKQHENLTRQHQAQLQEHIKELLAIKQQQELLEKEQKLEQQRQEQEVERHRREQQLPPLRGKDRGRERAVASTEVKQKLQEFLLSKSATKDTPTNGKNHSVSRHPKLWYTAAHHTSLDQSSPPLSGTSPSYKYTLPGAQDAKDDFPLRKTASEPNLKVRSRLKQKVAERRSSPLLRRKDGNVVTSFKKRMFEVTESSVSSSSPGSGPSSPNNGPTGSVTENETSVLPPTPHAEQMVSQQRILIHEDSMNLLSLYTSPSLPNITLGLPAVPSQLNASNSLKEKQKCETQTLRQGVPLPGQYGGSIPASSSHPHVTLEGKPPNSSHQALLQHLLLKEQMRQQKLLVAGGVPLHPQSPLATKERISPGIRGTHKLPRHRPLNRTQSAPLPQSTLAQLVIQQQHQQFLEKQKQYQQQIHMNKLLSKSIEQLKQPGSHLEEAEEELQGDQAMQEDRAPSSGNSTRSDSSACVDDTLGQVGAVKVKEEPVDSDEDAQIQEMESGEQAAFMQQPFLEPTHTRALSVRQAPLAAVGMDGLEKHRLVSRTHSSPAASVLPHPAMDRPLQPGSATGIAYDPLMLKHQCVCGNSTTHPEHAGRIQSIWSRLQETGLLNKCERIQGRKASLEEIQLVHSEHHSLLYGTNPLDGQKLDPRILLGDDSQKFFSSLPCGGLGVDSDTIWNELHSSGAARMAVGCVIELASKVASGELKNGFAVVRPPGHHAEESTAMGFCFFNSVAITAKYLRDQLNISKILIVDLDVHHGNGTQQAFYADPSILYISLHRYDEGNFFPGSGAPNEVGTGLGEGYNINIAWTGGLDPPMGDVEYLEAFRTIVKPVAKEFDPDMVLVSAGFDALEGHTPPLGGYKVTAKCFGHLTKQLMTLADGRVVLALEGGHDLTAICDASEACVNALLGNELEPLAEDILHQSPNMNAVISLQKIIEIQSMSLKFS
Sequence of HDAC4 (P56524 whole entry): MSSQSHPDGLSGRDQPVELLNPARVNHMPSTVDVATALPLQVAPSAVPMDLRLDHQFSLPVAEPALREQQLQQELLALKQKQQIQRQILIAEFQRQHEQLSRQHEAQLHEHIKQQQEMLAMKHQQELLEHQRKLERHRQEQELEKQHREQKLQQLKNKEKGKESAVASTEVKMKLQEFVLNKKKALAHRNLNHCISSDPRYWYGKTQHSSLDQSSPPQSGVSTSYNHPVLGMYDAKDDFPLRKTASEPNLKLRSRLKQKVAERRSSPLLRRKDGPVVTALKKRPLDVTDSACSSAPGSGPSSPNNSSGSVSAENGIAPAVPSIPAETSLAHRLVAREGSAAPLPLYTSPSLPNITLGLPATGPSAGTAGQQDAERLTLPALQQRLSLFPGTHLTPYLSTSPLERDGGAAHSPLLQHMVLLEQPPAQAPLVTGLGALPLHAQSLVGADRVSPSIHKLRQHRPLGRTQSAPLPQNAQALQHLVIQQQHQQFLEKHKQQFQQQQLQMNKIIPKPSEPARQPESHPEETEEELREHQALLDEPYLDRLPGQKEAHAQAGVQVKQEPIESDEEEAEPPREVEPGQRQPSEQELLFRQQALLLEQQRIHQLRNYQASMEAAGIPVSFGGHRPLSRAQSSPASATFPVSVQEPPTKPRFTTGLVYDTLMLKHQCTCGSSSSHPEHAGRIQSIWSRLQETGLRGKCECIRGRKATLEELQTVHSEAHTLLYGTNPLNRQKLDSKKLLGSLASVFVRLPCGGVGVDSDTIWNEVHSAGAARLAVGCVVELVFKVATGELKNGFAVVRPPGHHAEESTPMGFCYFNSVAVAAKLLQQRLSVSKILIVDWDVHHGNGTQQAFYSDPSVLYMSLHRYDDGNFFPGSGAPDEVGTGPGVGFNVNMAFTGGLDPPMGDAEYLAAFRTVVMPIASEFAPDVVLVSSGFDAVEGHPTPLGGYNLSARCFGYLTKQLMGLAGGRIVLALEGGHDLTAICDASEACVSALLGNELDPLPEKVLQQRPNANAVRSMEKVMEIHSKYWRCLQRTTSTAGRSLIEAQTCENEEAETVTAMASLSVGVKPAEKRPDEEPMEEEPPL
Sequence of HDAC3/NCOR2 (Q9Y618 395-489): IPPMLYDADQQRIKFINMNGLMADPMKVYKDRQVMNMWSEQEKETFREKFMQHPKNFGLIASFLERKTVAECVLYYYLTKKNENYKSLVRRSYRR
Sequence of HDAC3/NCOR2 (O15379 whole entry): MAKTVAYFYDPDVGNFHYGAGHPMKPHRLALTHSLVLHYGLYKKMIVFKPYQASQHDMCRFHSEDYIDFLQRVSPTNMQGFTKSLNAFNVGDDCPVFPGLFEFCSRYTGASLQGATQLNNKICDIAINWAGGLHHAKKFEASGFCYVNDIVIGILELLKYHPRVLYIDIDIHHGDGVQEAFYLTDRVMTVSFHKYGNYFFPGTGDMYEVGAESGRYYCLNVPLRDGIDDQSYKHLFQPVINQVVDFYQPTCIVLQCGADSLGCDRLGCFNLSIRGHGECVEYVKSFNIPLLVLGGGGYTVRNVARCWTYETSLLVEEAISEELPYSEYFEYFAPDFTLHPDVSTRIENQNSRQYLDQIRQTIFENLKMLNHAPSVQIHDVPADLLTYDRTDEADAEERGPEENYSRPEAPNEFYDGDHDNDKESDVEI
Sequence of HDAC5 (Q9UQL6 whole entry): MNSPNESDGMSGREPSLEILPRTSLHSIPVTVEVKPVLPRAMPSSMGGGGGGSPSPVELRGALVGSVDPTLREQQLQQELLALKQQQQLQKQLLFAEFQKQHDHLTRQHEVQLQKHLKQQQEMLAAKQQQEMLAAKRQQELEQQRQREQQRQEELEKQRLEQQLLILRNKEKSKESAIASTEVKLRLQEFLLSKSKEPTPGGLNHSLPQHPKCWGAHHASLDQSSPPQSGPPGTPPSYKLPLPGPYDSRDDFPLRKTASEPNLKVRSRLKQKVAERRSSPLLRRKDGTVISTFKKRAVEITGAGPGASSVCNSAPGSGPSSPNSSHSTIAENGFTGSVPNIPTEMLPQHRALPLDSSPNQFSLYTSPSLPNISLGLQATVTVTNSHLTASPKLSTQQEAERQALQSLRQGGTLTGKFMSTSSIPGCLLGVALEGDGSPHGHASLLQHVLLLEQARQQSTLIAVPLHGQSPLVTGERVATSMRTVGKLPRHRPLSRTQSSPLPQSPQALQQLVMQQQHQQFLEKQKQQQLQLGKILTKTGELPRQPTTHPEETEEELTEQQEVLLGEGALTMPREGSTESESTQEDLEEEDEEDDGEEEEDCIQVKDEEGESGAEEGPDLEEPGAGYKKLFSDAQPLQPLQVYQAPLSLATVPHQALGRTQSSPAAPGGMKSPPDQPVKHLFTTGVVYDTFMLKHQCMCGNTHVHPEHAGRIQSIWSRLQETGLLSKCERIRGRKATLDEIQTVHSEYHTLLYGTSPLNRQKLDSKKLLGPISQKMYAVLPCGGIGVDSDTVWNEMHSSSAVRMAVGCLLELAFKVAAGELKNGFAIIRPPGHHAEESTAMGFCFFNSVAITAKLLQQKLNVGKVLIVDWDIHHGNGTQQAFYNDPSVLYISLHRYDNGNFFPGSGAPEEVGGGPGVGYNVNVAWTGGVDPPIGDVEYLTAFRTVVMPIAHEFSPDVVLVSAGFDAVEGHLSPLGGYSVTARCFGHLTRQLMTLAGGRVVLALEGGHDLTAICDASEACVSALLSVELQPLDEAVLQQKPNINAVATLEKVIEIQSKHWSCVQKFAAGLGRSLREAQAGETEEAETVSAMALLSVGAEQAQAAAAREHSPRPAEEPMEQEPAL

Regarding `FC(F)(F)c1nc(-c2cnc(NC3(c4ccccc4)CC3)nc2)no1`, the IC50 at HDAC11 was > 30 µM; at HDAC8 it was > 30 µM; at HDAC6, 0.15 µM; on HDAC2, 13 µM; on HDAC4, 0.013 µM; at HDAC3/NCOR2, 4.1 µM. Also, the IC50 at HDAC9 came out at 0.077 µM; at HDAC10 it was 6.4 µM; on HDAC7 it was 0.02 µM; at HDAC5, 0.25 µM.
With `FC(F)c1nc(-c2cnc(NC3(c4ccccc4)CC3)nc2)no1`, the IC50 at HDAC1 was > 30 µM; on HDAC6 it was 2.9 µM.

As a reminder, the IC50 is the concentration that gives 50% inhibition.
